# Source: the supplement of paper PMC11061612
# Experiments:
# [1] = system: COR-L105 (Lung Adenocarcinoma); experiment: Bliss excess, mean over the matrix (fraction); higher = more synergy
# How it was run: (§1)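 After 24 hours at 37°C and 5% CO2 in 1536-well plates, cells in DMEM/F12 or RPMI plus 10% FBS received two-drug dose matrices for 72 hours. Viability came from CellTiter-Glo 2.0 luminescence and was scaled as inhibition, anchored at 0 by vehicle wells and at 1 by blank wells. Combination Emax is taken as the second-highest inhibition in the matrix, and Bliss excess as the observed combination effect less EA + EB − EA·EB, with EA and EB the single-agent effects.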
# MG-63 (Osteosarcoma) [2] = experiment: as above
# How it was run: as §1
# [3] = system: NCI-H1435 (Non-Small Cell Lung Carcinoma); experiment: as above
# How it was run: as §1
# [4] = system: SBC-3 (Small Cell Lung Carcinoma); experiment: as above
# How it was run: as §1
# [5] = system: L-363 (Plasma Cell Myeloma); experiment: as above
# How it was run: as §1
# [6] = system: RPMI-8402 (T-Lymphoblastic Leukemia); experiment: as above
# How it was run: as §1
# [7] = system: MDA-MB-175-VII (Breast Carcinoma); experiment: as above
# How it was run: as §1
# [8] = system: KNS-62 (Squamous Cell Lung Carcinoma); experiment: as above
# How it was run: as §1
# [9] = system: BC-1 (B-Cell Non-Hodgkin's Lymphoma); experiment: as above
# How it was run: as §1
# GCIY (Gastric Carcinoma) [10] = experiment: as above
# How it was run: as §1
# [11] = system: NCI-H835 (Other Solid Carcinomas); experiment: as above
# How it was run: as §1
# [12] = system: NCI-H2009 (Lung Adenocarcinoma); experiment: as above
# How it was run: as §1
# [13] = system: SW1463 (Colorectal Carcinoma); experiment: as above
# How it was run: as §1
# [14] = system: NTERA-2-cl-D1 (Other Solid Carcinomas); experiment: as above
# How it was run: as §1
# [15] = system: CAL-85-1 (Breast Carcinoma); experiment: as above
# How it was run: as §1
# NCI-H2452 (Mesothelioma) [16] = experiment: as above
# How it was run: as §1
# C32 (Melanoma) [17] = experiment: as above
# How it was run: as §1
# [18] = system: OVKATE (Ovarian Carcinoma); experiment: as above
# How it was run: as §1
# [19] = system: NCI-H1648 (Lung Adenocarcinoma); experiment: as above
# How it was run: as §1
# A375 (Melanoma) [20] = experiment: as above
# How it was run: as §1
# [21] = system: NCI-H2023 (Non-Small Cell Lung Carcinoma); experiment: as above
# How it was run: as §1
# SK-MEL-24 (Melanoma) [22] = experiment: as above
# How it was run: as §1
# [23] = system: MRK-nu-1 (Breast Carcinoma); experiment: as above
# How it was run: as §1
# [24] = system: COR-L105 (Lung Adenocarcinoma); experiment: combination Emax (second highest fraction inhibited in the dose matrix, 72 h); higher = more inhibition; extreme values may be limits of the assay
# How it was run: as §1
# MG-63 (Osteosarcoma) [25] = experiment: as above
# How it was run: as §1
# [26] = system: NCI-H1435 (Non-Small Cell Lung Carcinoma); experiment: as above
# How it was run: as §1
# [27] = system: SBC-3 (Small Cell Lung Carcinoma); experiment: as above
# How it was run: as §1
# [28] = system: L-363 (Plasma Cell Myeloma); experiment: as above
# How it was run: as §1
# [29] = system: RPMI-8402 (T-Lymphoblastic Leukemia); experiment: as above
# How it was run: as §1
# [30] = system: MDA-MB-175-VII (Breast Carcinoma); experiment: as above
# How it was run: as §1
# [31] = system: KNS-62 (Squamous Cell Lung Carcinoma); experiment: as above
# How it was run: as §1
# [32] = system: BC-1 (B-Cell Non-Hodgkin's Lymphoma); experiment: as above
# How it was run: as §1
# GCIY (Gastric Carcinoma) [33] = experiment: as above
# How it was run: as §1
# [34] = system: NCI-H835 (Other Solid Carcinomas); experiment: as above
# How it was run: as §1
# [35] = system: NCI-H2009 (Lung Adenocarcinoma); experiment: as above
# How it was run: as §1
# [36] = system: SW1463 (Colorectal Carcinoma); experiment: as above
# How it was run: as §1
# [37] = system: NTERA-2-cl-D1 (Other Solid Carcinomas); experiment: as above
# How it was run: as §1
# [38] = system: CAL-85-1 (Breast Carcinoma); experiment: as above
# How it was run: as §1
# NCI-H2452 (Mesothelioma) [39] = experiment: as above
# How it was run: as §1
# C32 (Melanoma) [40] = experiment: as above
# How it was run: as §1
# [41] = system: OVKATE (Ovarian Carcinoma); experiment: as above
# How it was run: as §1
# [42] = system: NCI-H1648 (Lung Adenocarcinoma); experiment: as above
# How it was run: as §1
# A375 (Melanoma) [43] = experiment: as above
# How it was run: as §1
# [44] = system: NCI-H2023 (Non-Small Cell Lung Carcinoma); experiment: as above
# How it was run: as §1
# SK-MEL-24 (Melanoma) [45] = experiment: as above
# How it was run: as §1
# [46] = system: MRK-nu-1 (Breast Carcinoma); experiment: as above
# How it was run: as §1
# 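Wherever Bliss excess, mean over the matrix is given: after 72 h of two-drug dosing.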
smiles,measurement,setting,value
"C[C@@H]1COCCN1c1cc(C2([S@](C)(=N)=O)CC2)nc(-c2ccnc3[nH]ccc23)n1 [AZD6738] + Nc1ccn([C@@H]2O[C@H](CO)[C@@H](O)C2(F)F)c(=O)n1 [Gemcitabine] (first compound max 10 µM, 7x7, partner max 0.3 µM)",Bliss excess,[1],0.003
same,Bliss excess,MG-63 (Osteosarcoma) [2],0.17
same,Bliss excess,[3],0.0799
same,Bliss excess,[4],0.0306
same,Bliss excess,[5],0.0716
same,Bliss excess,[6],0.0319
same,Bliss excess,[7],-0.0368
same,Bliss excess,[8],0.0023
same,Bliss excess,[9],0.0099
same,Bliss excess,GCIY (Gastric Carcinoma) [10],-0.0362
same,Bliss excess,[11],0.0442
same,Bliss excess,[12],0.0954
same,Bliss excess,[13],-0.0128
same,Bliss excess,[14],-0.0019
same,Bliss excess,[15],0.0227
same,Bliss excess,NCI-H2452 (Mesothelioma) [16],0.0333
same,Bliss excess,C32 (Melanoma) [17],-0.0247
same,Bliss excess,[18],-0.0172
same,Bliss excess,[19],0.0542
same,Bliss excess,A375 (Melanoma) [20],0.0602
same,Bliss excess,[21],0.0123
same,Bliss excess,SK-MEL-24 (Melanoma) [22],0.0379
same,Bliss excess,[23],-0.0532
same,combination Emax,[24],0.543
same,combination Emax,MG-63 (Osteosarcoma) [25],1
same,combination Emax,[26],0.411
same,combination Emax,[27],0.97
same,combination Emax,[28],0.941
same,combination Emax,[29],1
same,combination Emax,[30],0.529
same,combination Emax,[31],0.665
same,combination Emax,[32],0.985
same,combination Emax,GCIY (Gastric Carcinoma) [33],0.774
same,combination Emax,[34],0.446
same,combination Emax,[35],0.789
same,combination Emax,[36],0.792
same,combination Emax,[37],0.592
same,combination Emax,[38],0.726
same,combination Emax,NCI-H2452 (Mesothelioma) [39],0.763
same,combination Emax,C32 (Melanoma) [40],0.703
same,combination Emax,[41],0.345
same,combination Emax,[42],0.725
same,combination Emax,A375 (Melanoma) [43],0.991
same,combination Emax,[44],0.684
same,combination Emax,SK-MEL-24 (Melanoma) [45],0.841
same,combination Emax,[46],0.781
"Cc1nc(-c2cn3c(n2)-c2ccc(-c4cnn(C(C)(C)C(N)=O)c4)cc2OCC3)n(C(C)C)n1 [Taselisib] + O=C(Nc1ccc2[nH]nc(-c3ccncc3)c2c1)[C@@H]1CCN(CC(=O)N2CCN(c3ccc(-c4ncccn4)cc3)CC2)C1 [SCH772984] (first compound max 10 µM, 7x7, partner max 5 µM)",Bliss excess,[1],0.052
same,Bliss excess,MG-63 (Osteosarcoma) [2],-0.0764
same,Bliss excess,[3],0.0352
same,Bliss excess,[4],0.11
same,Bliss excess,[5],0.176
same,Bliss excess,[6],0.0802
same,Bliss excess,[7],0.138
same,Bliss excess,[8],0.0108
same,Bliss excess,[9],0.139
same,Bliss excess,GCIY (Gastric Carcinoma) [10],-0.0131
same,Bliss excess,[11],0.0323
same,Bliss excess,[12],0.0964
same,Bliss excess,[13],0.0102
same,Bliss excess,[14],-0.0322
same,Bliss excess,[15],0.0682
same,Bliss excess,NCI-H2452 (Mesothelioma) [16],-0.0276
same,Bliss excess,C32 (Melanoma) [17],0.0706
same,Bliss excess,[18],0.0487
same,Bliss excess,[19],0.115
same,Bliss excess,A375 (Melanoma) [20],0.133
same,Bliss excess,[21],-0.0437
same,Bliss excess,SK-MEL-24 (Melanoma) [22],0.0017
same,Bliss excess,[23],0.0385
same,combination Emax,[24],0.788
same,combination Emax,MG-63 (Osteosarcoma) [25],0.746
same,combination Emax,[26],0.791
same,combination Emax,[27],0.76
same,combination Emax,[28],0.63
same,combination Emax,[29],0.898
same,combination Emax,[30],1
same,combination Emax,[31],0.787
same,combination Emax,[32],0.652
same,combination Emax,GCIY (Gastric Carcinoma) [33],0.888
same,combination Emax,[34],0.71
same,combination Emax,[35],0.919
same,combination Emax,[36],0.798
same,combination Emax,[37],0.64
same,combination Emax,[38],0.935
same,combination Emax,NCI-H2452 (Mesothelioma) [39],0.534
same,combination Emax,C32 (Melanoma) [40],1
same,combination Emax,[41],0.423
same,combination Emax,[42],1
same,combination Emax,A375 (Melanoma) [43],0.918
same,combination Emax,[44],0.665
same,combination Emax,SK-MEL-24 (Melanoma) [45],0.93
same,combination Emax,[46],0.542
